According to patent publication US20250144067A1, “PERSONALIZED STARVATION THERAPY FOR CANCER” (Faeth Therapeutics, Inc., priority 2021, published 2025):
Counter-ions that a name gives are not always drawn. Peptide text beside a SMILES is read from it.

Key:
[1] = test system: NCI-H292 lung cancer cells; test: FDA drug screening, complete media vs cholesterol-free media without statin (TABLE 1); format: cell-based, human
[2] = test system: NCI-H292 lung cancer cells; test: FDA drug screening, complete media vs cholesterol-free media with simvastatin (TABLE 2); format: cell-based, human; conditions: for Cholesterol-free media + simvastatin (0.04 μM) / Complete Media: NCI-H292 cells
[3] = Complete minus Cholesterol-free, […]
[4] = NCI-H292 cells, cholesterol-free media without statin
[5] = FDA drug library screen, cholesterol-free media with simvastatin 0.04 μM
[6] = FDA drug library screen, complete media
[7] = complete media vs cholesterol-free media + simvastatin (0.04 μM), […]
[8] = NCI-H292 cells, FDA drug library screen, cholesterol-free media without statin
[9] = NCI-H292 cells, FDA drug library screen, complete media
[10] = Complete minus Cholesterol-free, >0 enhanced anti-cancer activity, about 0 neutral, <0 antagonist
[11] = complete media minus cholesterol-free media + simvastatin, >0 enhanced anti-cancer activity, about 0 neutral, <0 antagonist
[12] = drug in cholesterol-free media with simvastatin 0.04 μM
[13] = complete media vs cholesterol-free media + simvastatin (0.04 μM), >0 enhanced anti-cancer activity, about 0 neutral, <0 antagonist
[14] = Complete minus Cholesterol-free, greater than 0 enhanced anti-cancer activity, about 0 neutral, below 0 antagonist
[15] = NCI-H292 cells, cholesterol-free media without statin, FDA drug library screen
[16] = NCI-H292 cells, complete media, FDA drug library screen
[17] = complete vs cholesterol-free media, >0 enhanced anti-cancer activity, about 0 neutral, <0 antagonist
[18] = complete media minus cholesterol-free media + simvastatin, […]
[19] = cholesterol-free media with simvastatin 0.04 μM, FDA drug library screen (TABLE 2)
[20] = complete media, FDA drug library screen (TABLE 2)
[21] = FDA library drug in cholesterol-free media with simvastatin 0.04 μM
[22] = FDA library drug in complete media

SMILES	Cholesterol-free [1, 4]	Complete ([1]; NCI-H292 cells, complete media)	Cholesterol-free media + simvastatin (0.04 μM) [2, 5]	Complete Media [2, 6]	Cholesterol-free [1, 8]	Complete [1, 9]	Difference [1, 10]	Difference [2, 13]	also measured
CC1=C[C@]23C(=O)[C@@H](C=C(CO)[C@@H](O)[C@]2(O)[C@H]1O)[C@H]1[C@@H](C[C@H]3C)C1(C)C [Ingenol]	0.932	0.6376	1.056	0.969	–	–	–	–	Difference [1, 3]: −0.29; Difference [2, 7]: −0.09
CSCCNc1nc(SCCC(F)(F)F)nc2c1ncn2[C@@H]1O[C@H](COP(=O)([O-])OP(=O)([O-])C(Cl)(Cl)P(=O)([O-])[O-])[C@@H](O)[C@H]1O.[Na+].[Na+].[Na+].[Na+] [Cangrelor (tetrasodium)]	–	–	1.209	1.098	1.189	1.05	–	–	Difference [1, 3]: −0.14; Difference [2, 7]: −0.11
CC(=O)NO [Acetohydroxamic acid]	1.174	0.8978	–	–	–	–	−0.28	–	Cholesterol-free media + simvastatin (0.04 μM) ([2]; cholesterol-free media with simvastatin 0.04 μM, cell growth value in FDA drug screen): 0.8799; Complete Media ([2]; complete media, cell growth value in FDA drug screen): 0.8992; Difference [2, 11]: 0.02
CCc1ccc(CCOc2ccc(CC3SC(=O)NC3=O)cc2)nc1 (centres unmarked) [Pioglitazone (hydrochloride)]	1.265	0.9669	–	–	–	–	−0.30	−0.25	Cholesterol-free media + simvastatin (0.04 μM) [2, 12]: 1.247; Complete Media ([2]; drug in complete media): 1.002
CO/N=C(\C(=O)N[C@@H]1C(=O)N2C(C(=O)OCOC(=O)C(C)(C)C)=C(C)CS[C@H]12)c1csc(N)n1.Cl [Cefetamet pivoxil (hydrochloride)]	–	–	–	–	1.076	0.9196	–	−0.21	Difference [1, 14]: −0.16; Cholesterol-free media + simvastatin (0.04 μM) [2, 12]: 1.058; Complete Media ([2]; drug in complete media): 0.852
C[C@H](CCC(=O)O)[C@H]1CC[C@H]2[C@@H]3CC[C@@H]4C[C@H](O)CC[C@]4(C)[C@H]3C[C@H](O)[C@]12C [Deoxycholic acid sodium salt]	–	–	–	–	–	–	–	−0.17	Cholesterol-free [1, 15]: 0.8045; Complete [1, 16]: 0.9543; Difference [1, 17]: 0.15; Cholesterol-free media + simvastatin (0.04 μM) [2, 12]: 0.8739; Complete Media ([2]; drug in complete media): 0.7063
O=NN(CCCl)C(=O)NCCCl [Carmustine]	0.9766	0.7259	1.071	1.247	–	–	–	–	Difference [1, 3]: −0.25; Difference [2, 18]: 0.18
O=C(O)C1=C(CSc2nnnn2CS(=O)(=O)O)CS[C@@H]2[C@H](NC(=O)[C@H](O)c3ccccc3)C(=O)N12 [Cefonicid (sodium)]	–	–	1.25	1.107	–	–	0.00	−0.14	Cholesterol-free [1, 15]: 0.833; Complete [1, 16]: 0.8286
COc1cc([C@@H]2c3cc4c(cc3[C@@H](O[C@@H]3O[C@@H]5CO[C@@H](C)O[C@H]5[C@H](O)[C@H]3O)[C@H]3COC(=O)[C@H]23)OCO4)cc(OC)c1O [Etoposide]	0.7069	0.4154	–	–	–	–	−0.29	−0.22	Cholesterol-free media + simvastatin (0.04 μM) [2, 12]: 0.718; Complete Media ([2]; drug in complete media): 0.5014
Cc1nc2ccc(CN(C)c3ccc(C(=O)N[C@@H](CCC(=O)O)C(=O)O)s3)cc2c(=O)[nH]1 [Raltitrexed]	0.3503	0.1117	–	–	–	–	−0.24	–	Cholesterol-free media + simvastatin (0.04 μM) [2, 19]: 0.1121; Complete Media [2, 20]: 0.0907; Difference ([2]; complete media minus cholesterol-free media + simvastatin (0.04 μM), >0 enhanced anti-cancer activity, about 0 neutral, <0 antagonist): −0.02
C[C@H]1[C@H](OC(=O)CCC(=O)O)O[C@@H]2O[C@@]3(C)CC[C@H]4[C@H](C)CC[C@@H]1[C@@]24OO3 [Artesunate]	0.9732	0.63	1.06	0.9407	–	–	–	−0.12	Difference ([1]; complete vs cholesterol-free media, greater than 0 enhanced anti-cancer activity, about 0 neutral, below 0 antagonists): −0.34
CN[C@@H]1[C@H](O)[C@H](NC)[C@H]2O[C@@]3(O)C(=O)C[C@@H](C)O[C@H]3O[C@@H]2[C@H]1O.Cl.Cl.O.O.O.O.O	–	–	0.773	0.9222	–	–	–	–	Difference ([1]; Complete minus Cholesterol-free, greater than 0 enhanced anti-cancer activity, about 0 neutral, below 0 antagonists): −0.93; Cholesterol-free ([1]; NCI-H292 cells in cholesterol-free media without statin): 1.889; Complete ([1]; NCI-H292 cells in complete media): 0.9594; Difference [2, 11]: 0.15
O=C(CO)[C@@H](O)[C@H](O)[C@H](O)CO [D-Fructose]	–	–	–	–	–	–	0.05	−0.23	Cholesterol-free [1, 15]: 1.151; Complete [1, 16]: 1.203; Cholesterol-free media + simvastatin (0.04 μM) [2, 12]: 1.284; Complete Media ([2]; drug in complete media): 1.053
CC[C@H](C)[C@H](N)C1=N[C@H](C(=O)N[C@@H](CC(C)C)C(=O)N[C@H](CCC(=O)O)C(=O)N[C@H](C(=O)N[C@H]2CCCCNC(=O)[C@H](CC(N)=O)NC(=O)[C@@H](CC(=O)O)NC(=O)[C@H](Cc3cnc[nH]3)NC(=O)[C@@H](Cc3ccccc3)NC(=O)[C@H]([C@@H](C)CC)NC(=O)[C@@H](CCCN)NC2=O)[C@@H](C)CC)CS1 [Bacitracin] (HELM PEPTIDE1{[CC[C@H](C)[C@H](N)C1=N[C@H](C(=O)[*:2])CS1].L.[dE].I.K.[NCCC[C@@H](N[*:1])C(=O)[*:2]].I.[dF].H.[dD].N}$PEPTIDE1,PEPTIDE1,5:R3-11:R2$$$V2.0)	1.42	1.094	0.9407	1.203	–	–	–	–	Difference ([1]; complete vs cholesterol-free media, […]): −0.33; Difference [2, 18]: 0.26
C/C1=C2/[N-][C@H]([C@H](CC(N)=O)[C@@]2(C)CCC(=O)NC[C@@H](C)OP(=O)([O-])O[C@H]2[C@@H](O)[C@@H](n3cnc4cc(C)c(C)cc43)O[C@@H]2CO)[C@]2(C)N=C(/C(C)=C3N=C(/C=C4N=C1[C@@H](CCC(N)=O)C\4(C)C)[C@@H](CCC(N)=O)[C@]\3(C)CC(N)=O)[C@@H](CCC(N)=O)[C@]2(C)CC(N)=O.[CH3-].[Co+3] [Methylcobalamin]	–	–	–	–	1.021	0.8435	–	–	Difference [1, 3]: −0.18; Cholesterol-free media + simvastatin (0.04 μM) [2, 21]: 1.749; Complete Media [2, 22]: 0.8589; Difference [2, 7]: −0.89
CC(C)N1CCN(c2ccc(OCC3COC(Cn4cncn4)(c4ccc(Cl)cc4Cl)O3)cc2)CC1 (centres unmarked) [Terconazole]	–	–	0.6294	1.003	–	–	–	–	Cholesterol-free [1, 15]: 1.052; Complete [1, 16]: 1.158; Difference [1, 17]: 0.11; Difference [2, 11]: 0.37
CCCCC[C@](C)(O)/C=C/[C@@H]1[C@@H](C/C=C\CCCC(=O)O)[C@@H](O)C[C@H]1O.NC(CO)(CO)CO [Carboprost (tromethamine)]	–	–	–	–	1.222	1.08	–	−0.29	Difference [1, 14]: −0.14; Cholesterol-free media + simvastatin (0.04 μM) [2, 21]: 1.591; Complete Media [2, 22]: 1.306
CC[C@H]1[C@@H]2C[C@H]3[C@@H]4N(C)c5ccccc5[C@]45C[C@@H]([C@H]2[C@H]5O)N3[C@@H]1O [Ajmaline]	–	–	–	–	1.107	0.943	–	–	Difference [1, 3]: −0.16; Cholesterol-free media + simvastatin (0.04 μM) [2, 19]: 1.33; Complete Media [2, 20]: 1.333; Difference ([2]; complete media minus cholesterol-free media + simvastatin (0.04 μM), […]): 0.00
C[C@H]1O[C@H](O[C@H]2[C@H](O)[C@@H](O)[C@@H](O[C@H]3[C@H](O)[C@@H](O)C(O)O[C@@H]3CO)O[C@@H]2CO)[C@H](O)[C@@H](O)[C@@H]1N[C@H]1C=C(CO)[C@@H](O)[C@H](O)[C@H]1O (some centres unmarked) [Acarbose]	–	–	0.841	–	1.056	0.9216	–	–	Difference [1, 14]: −0.13; Difference [2, 11]: 0.31
